{
  "source": "patent US12419948B2",
  "about": "“Immunogenic compositions and use thereof” (priority 2020, dated 2025)",
  "assay_in_all_cases": "biochemical",
  "type_in_all_cases": "binding",
  "key": {"[1]": {"molecular_target": "T1, HLA-B*18:01 (Homo sapiens, UniProt P01889, A329T/A93T/A95T/C349S/D201E/D54G/D98Y/E176V/E187T/E204Q/E69T/K202T/Q94N/R155S/R180L/S121R/V306I/Y140S/Y195H/Y33H/Y91S)", "T1 construct": "made in house"}, "[2]": {"molecular_target": "T2, HLA-B*44:03 (Homo sapiens, UniProt P01889, A223V/A65T/A93T/A95T/D201E/D98Y/E176V/E187L/E204Q/E69K/G107R/H137Y/K202T/L105A/L119I/N104T/N87E/Q56L/Q94N/R106L/R155S/R180L/S101N/S121R/S35A/S48T/T118I/V36M/W191S/Y140D/Y91S)", "T2 construct": "made in house", "conditions": "synthetic peptide, purified MHC"}, "[3]": {"molecular_target": "T3, HLA-A*01:01 (Homo sapiens, UniProt P04439, A114D/A174V/A182V/D101N/D185E/E176A/E190D/L180R/Q94H/R68K/S129P/T187R/V100A/V91M/W191G)", "T3 construct": "made in house", "conditions": "synthetic peptide, purified MHC"}, "[4]": {"molecular_target": "HLA-A*26:01 (Homo sapiens, UniProt P04439, A114D/A173T/A270S/D101N/D185E/E277Q/E87N/F33Y/G231S/I121R/I218V/K168Q/L180W/L300P/L318F/P208A/P217A/Q86R/Q94H/R138Q/S129P/T187R/T323A/T345S/V100A/V358M)"}, "[5]": {"molecular_target": "T4, HLA-B*15:01 (Homo sapiens, UniProt P01889, A329T/A93T/A95T/C349S/D201E/D98Y/E187L/E204Q/E69M/E70A/K202T/N87E/Q94N/R155S/R180W/S121R/S35A/S48A/V306I/V36M/Y140S/Y91S)", "T4 construct": "made in house"}, "[6]": {"molecular_target": "T5, HLA-B*44:02 (Homo sapiens, UniProt P01889, A223V/A65T/A93T/A95T/D201E/D98Y/E176V/E187L/E204Q/E69K/G107R/H137Y/K202T/L105A/L119I/N104T/N87E/Q56L/Q94N/R106L/R155S/R180D/S101N/S121R/S35A/S48T/T118I/V36M/W191S/Y140D/Y91S)", "T5 construct": "made in house", "conditions": "synthetic peptide, purified MHC"}, "[7]": {"molecular_target": "T6, HLA-B*51:01 (Homo sapiens, UniProt P01889, A329T/A93T/A95T/C349S/D138N/D201E/D98Y/E187L/E204Q/E69T/G107R/I218V/K202T/L105A/L119W/N104I/Q94N/R106L/R155S/R180L/S101N/S121T/S35A/S48A/V306I/V36M/Y195H/Y91F)", "T6 construct": "made in house", "conditions": "synthetic peptide, purified MHC"}, "[8]": {"molecular_target": "T7, HLA-A*02:01 (Homo sapiens, UniProt P04439, D140Y/D185E/D98H/E176V/E277Q/G131W/G231S/I119V/I121R/I166T/I218V/L300P/L318F/N151K/N90K/P208A/P217A/Q86G/Q94H/R138H/R169H/T345S)", "T7 construct": "made in house"}, "[9]": {"conditions": "read-out: Binding in vitro (IC50, [nM])"}},
  "note": "Where two headings read alike, the source gives them in different places. Where no end group is shown, it is not given here.",
  "data": [
    {"sequence": "KNIDGYFKIY", "values": [
      {"measurement": "IC50", "setting": "[1]; [9]", "value": "> 70000", "unit": "nM"}
    ]},
    {"sequence": "APRITFGGP [Peptide 29]", "values": [
      {"measurement": "IC50", "setting": "[1]", "value": "> 70000", "unit": "nM"},
      {"measurement": "IC50", "setting": "[2]", "value": "> 70", "unit": "µM"},
      {"measurement": "IC50", "setting": "[3]", "value": "> 70", "unit": "µM"},
      {"measurement": "IC50", "setting": "[4]", "value": "> 70", "unit": "µM"},
      {"measurement": "IC50", "setting": "[5]", "value": "> 70", "unit": "µM"},
      {"measurement": "IC50", "setting": "[6]", "value": "> 70", "unit": "µM"},
      {"measurement": "IC50", "setting": "[7]", "value": "> 70", "unit": "µM"}
    ]},
    {"sequence": "GLITLSYHL", "values": [
      {"measurement": "IC50", "setting": "[8]; HLA allele A0201, peptide detected in HEK293T, IC50 <500 nM indicates binding, read-out: Binding in vitro (IC50, [nM])", "value": "< 0.5", "unit": "nM"},
      {"measurement": "IC50", "setting": "[8]; read-out: IC50, binding to HLA-A*02:01", "value": "< 0.5", "unit": "nM"}
    ]},
    {"sequence": "DEFVVVTV", "values": [
      {"measurement": "IC50", "setting": "[1]; [9]", "value": "< 0.5", "unit": "nM"}
    ]}
  ]
}
